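96-well plates; 48 h exposure; 5 concentrations. Endpoints by linear interpolation between flanking doses. Not reached: highest tested concentration assigned. The concentration for full growth arrest is given as TGI.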
Assays:
Test in all cases: DTP human tumour cell line panel, 48 h
[1] = test system: HOP-92 NSCLC
[2] = test system: SF-295 CNS
[3] = test system: SF-539 CNS
[4] = test system: NCI-H522 lung
[5] = test system: SK-MEL-2 melanoma
[6] = test system: HOP-18 NSCLC
[7] = test system: RPMI-8226 leukemia
[8] = test system: A549 NSCLC
[9] = test system: NCI-H460 lung
[10] = test system: XF 498 CNS
[11] = test system: SF-268 CNS
[12] = test system: OVCAR-3 ovarian
[13] = test system: SNB-75 CNS
[14] = test system: HCC-2998 colon
[15] = test system: ACHN renal
[16] = test system: HOP-62 NSCLC
[17] = test system: M19-MEL melanoma
[18] = test system: LOX IMVI melanoma
[19] = test system: DLD-1 colon
[20] = test system: OVCAR-5 ovarian
[21] = test system: CCRF-CEM leukemia
[22] = test system: HCT-116 colon
[23] = test system: DMS 273 small cell lung
[24] = test system: IGROV1 ovarian
[25] = test system: NCI-H23 lung
[26] = test system: LXFL 529 NSCLC
[27] = test system: EKVX NSCLC
[28] = test system: DMS 114 small cell lung
[29] = test system: RXF 393 renal
[30] = test system: A498 renal
[31] = test system: 786-0 renal
[32] = test system: K-562 leukemia
[33] = test system: SW-620 colon
[34] = test system: SK-MEL-28 melanoma
[35] = test system: TK-10 renal
[36] = test system: KM20L2 colon
[37] = test system: KM12 colon
[38] = test system: SNB-78 CNS
[39] = test system: HT29 colon
[40] = test system: UACC-257 melanoma
[41] = test system: UO-31 renal
[42] = test system: OVCAR-8 ovarian
[43] = test system: MALME-3M melanoma
[44] = test system: HL-60(TB) leukemia
[45] = test system: MOLT-4 leukemia
[46] = test system: SK-OV-3 ovarian
[47] = test system: COLO 205 colon
[48] = test system: U251 CNS

O=C(COc1ccc(Cl)cc1)N1CCN(C(=O)COc2ccc(Cl)cc2)c2ccccc21
TGI [1]: > 100 µM | TGI [2]: > 100 µM | TGI [3]: > 100 µM | TGI [4]: > 100 µM | TGI [5]: > 100 µM | TGI [6]: > 100 µM | TGI [7]: > 100 µM | TGI [8]: > 100 µM | TGI [9]: > 100 µM | TGI [10]: > 100 µM | TGI [11]: > 100 µM | TGI [12]: > 100 µM | TGI [13]: > 100 µM | TGI [14]: > 100 µM | TGI [15]: > 100 µM | TGI [16]: > 100 µM | TGI [17]: > 100 µM | TGI [18]: > 100 µM | TGI [19]: > 100 µM | TGI [20]: > 100 µM | TGI [21]: > 100 µM | TGI [22]: > 100 µM | TGI [23]: > 100 µM | TGI [24]: > 100 µM | TGI [25]: > 100 µM | TGI [26]: > 100 µM | TGI [27]: > 100 µM | TGI [28]: > 100 µM | TGI [29]: > 100 µM | TGI [30]: > 100 µM | TGI [31]: > 100 µM | TGI [32]: > 100 µM | TGI [33]: > 100 µM | TGI [34]: > 100 µM | TGI [35]: > 100 µM | TGI [36]: > 100 µM | TGI [37]: > 100 µM | TGI [38]: > 100 µM | TGI [39]: > 100 µM | TGI [40]: > 100 µM | TGI [41]: 53.9 µM | TGI [42]: > 100 µM | TGI [43]: > 100 µM | TGI [44]: 37.2 µM | TGI [45]: > 100 µM | TGI [46]: > 100 µM | TGI [47]: > 100 µM | TGI [48]: > 100 µM

Reference: PubChem BioAssay (NCI)
